The numbers were not newly measured in publication PMC4000412, “Novel LHRH-receptor-targeted cytolytic peptide, EP-100: first-in-human phase I study in patients with advanced LHRH-receptor-expressing solid tumors” (Cancer Chemotherapy and Pharmacology, 2014), which cites them from elsewhere.

Read-outs that look alike come from different tables or passages of the source. Peptide text beside a SMILES is read from it.

The conditions of data set [1]: cited from earlier work; for histamine release (clinical signs: swelling, redness or raised areas): pre-clinical studies; for well tolerated dose (as high as): repeated dose, ref Esperance data on file. The protocol:
Clinical signs of histamine release were eliminated in a female dog and lessened in a male dog when diphenhydramine was administered. Therefore, histamine release may cause IRDRs, but it remains unclear how EP-100 triggers IRDRs in humans and why the reaction is seen in skin only. Among patients experiencing IRDRs, hematolo ...

In data set [2] the test system is human cancer cell lines expressing the LHRH receptor. As to conditions: cited from earlier work. The source says:
EP-100 is a synthetic 28 amino acid consisting of the LHRH natural ligand joined to an 18 amino acid cationic α-helical lytic peptide (CLIP-71) without a linker. LHRH delivers the lytic peptide to cancer cells via specific binding to cell-surface LHRH receptors. Although EP-100’s exact mechanism of action has not yet been resolved, cancer cell membrane surface characteristics are believed to play a critical role.

On to `CC(C)C[C@H](NC(=O)CNC(=O)[C@H](Cc1ccc(O)cc1)NC(=O)[C@H](CO)NC(=O)[C@H](Cc1c[nH]c2ccccc12)NC(=O)[C@H](Cc1c[nH]cn1)NC(=O)[C@@H]1CCC(=O)N1)C(=O)N[C@@H](CCCNC(=N)N)C(=O)N1CCC[C@H]1C(=O)NCC(=O)N[C@@H](CCCCN)C(=O)N[C@@H](Cc1ccccc1)C(=O)N[C@@H](C)C(=O)N[C@@H](CCCCN)C(=O)N[C@@H](Cc1ccccc1)C(=O)N[C@@H](C)C(=O)N[C@@H](CCCCN)C(=O)N[C@@H](CCCCN)C(=O)N[C@@H](Cc1ccccc1)C(=O)N[C@@H](C)C(=O)N[C@@H](CCCCN)C(=O)N[C@@H](Cc1ccccc1)C(=O)N[C@@H](C)C(=O)N[C@@H](CCCCN)C(=O)N[C@@H](CCCCN)C(=O)N[C@@H](Cc1ccccc1)C(=O)N[C@@H](C)C(=O)N[C@@H](CCCCN)C(=O)O` [EP-100] (HELM PEPTIDE1{[Glp].H.W.S.Y.G.L.R.P.G.K.F.A.K.F.A.K.K.F.A.K.F.A.K.K.F.A.K}$$$$V2.0; C-terminus assumed), for which the “histamine release (clinical signs: swelling, redness or raised areas)” value in data set [1] (beagle dogs) and in data set [1] (mice) was “may trigger histamine release” throughout. Also, the “well tolerated dose (as high as)” value in data set [1] (dogs) and in data set [1] (mice) was 2.0 mg/kg in each case. Moreover, the “release of cell-death proteases from cells” value in data set [2] (in vitro, low micromolar concentrations) is listed as “released from cells within minutes”. The “incubation time to complete cell lysis” value in data set [2] (in vitro) was 1 h. Further, in data set [2] (various human cancer cell lines from solid tumors and hematological malignancies expressing the LHRH receptor, ref Esperance data on file, 37), the “in vitro activity level” value is reported as “sub-micromolar”.
